According to PubChem BioAssay (NCI):
Several values for one entry are separate records, joined by “and”; a condition that tells them apart may be missing. Identical values can stand only once.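 Assay format: 96-well plates, 48-hour exposure. At the TGI there is no net growth.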

Experiments:
Assay in all cases: NCI tumour cell line growth inhibition, 48 h
CAKI-1 renal = tested on: CAKI-1 renal
CCRF-CEM leukemia = tested on: CCRF-CEM leukemia
HL-60(TB) leukemia = tested on: HL-60(TB) leukemia
HS 578T breast = tested on: HS 578T breast
MDA-N = tested on: MDA-N
MOLT-4 leukemia = tested on: MOLT-4 leukemia
NCI-H23 lung = tested on: NCI-H23 lung
NCI-H522 lung = tested on: NCI-H522 lung
SF-295 CNS = tested on: SF-295 CNS
SK-MEL-2 melanoma = tested on: SK-MEL-2 melanoma
SK-OV-3 ovarian = tested on: SK-OV-3 ovarian
SNB-19 CNS = tested on: SNB-19 CNS
SR leukemia = tested on: SR leukemia
T-47D breast = tested on: T-47D breast
TK-10 renal = tested on: TK-10 renal
SN12C renal = tested on: SN12C renal

Compound	TGI (CAKI-1 renal) [µM]	TGI (CCRF-CEM leukemia) [µM]	TGI (HL-60(TB) leukemia) [µM]	TGI (HS 578T breast) [µM]	TGI (MDA-N) [µM]	TGI (MOLT-4 leukemia)	TGI (NCI-H23 lung) [µM]	TGI (NCI-H522 lung) [µM]	TGI (SF-295 CNS) [µM]	TGI (SK-MEL-2 melanoma) [µM]	TGI (SK-OV-3 ovarian) [µM]	TGI (SNB-19 CNS) [µM]	TGI (SR leukemia) [µM]	TGI (T-47D breast) [µM]	TGI (TK-10 renal) [µM]	TGI (SN12C renal) [µM]
COC(=O)C(CCc1ccccc1I)C1=CCC2(CC1)OCCO2 (centres undefined)	> 100	33.7	17.4	> 100	94.3	> 100 µM	> 100	68.8	> 100	> 100	> 100	> 100	> 100	71.3	> 100	
O=c1[nH]nc(-c2ccccc2)n1/N=C/c1ccncc1	> 100	> 100	> 100	97.3	> 100	> 100 µM	> 100	> 100	> 100			> 100	> 100	> 100	> 100	> 100
Clc1nc(Cl)c(Cl)c(Cl)n1	35.6	15.2	33.1	53.7	37.9	15.5 µM	40.3	35	36.9		30.3	38.8	14.6	41	37.3	42.7
c1ccc(-c2sc(-c3cccs3)cc2Cc2cccs2)cc1	> 10	> 10	> 10	> 10	> 10	> 10 µM	> 10	> 10	> 10		> 10	> 10	> 10	> 10	> 10	> 10
CCOc1cc(NC(C)=O)ccc1C(=O)NN1C(=O)C(Oc2ccccc2)C1c1ccccc1 (centres undefined)	> 100	> 100	> 100	> 100	> 100	20.4 µM	> 100	> 100	> 100	> 100	> 100		23.7	> 100	> 100	> 100
CC(=O)N1CCc2c([nH]c3ccc(Br)cc23)C1c1ccccc1 (centres undefined)	> 10	> 10	> 10	> 10	> 10	> 10 µM		> 10	> 10	> 10	> 10	> 10	> 10	> 10	> 10	> 10
O=C1NC(N/N=C\C(O)C(O)C(O)CO)=N/C1=C/c1ccc(Cl)cc1 (centres undefined)	> 100	> 100	> 100	> 100	> 100	55.6 µM and 61.4 µM	> 100	> 100	> 100	> 100	> 100	> 100		> 100	> 100	> 100
CC(C)SC(C)(NC(=O)C1C(C)(C)CCC1(C)C)C(=O)O (centres undefined)		> 100	> 100	> 100	> 100	> 100 µM	> 100			> 100	> 100	> 100	> 100	> 100	> 100	> 100
CCOC(=O)Nc1c(C#N)[n+]([O-])c2cc(Cl)c(Cl)cc2[n+]1[O-]	40.4	22.9		> 100	43	28.7 µM	53.9		34	48	66	65.9	24.3	54.2	> 100	32
COC1=C(N=[N+]=[N-])C(=O)c2ncccc2C1=O	13.3		3.98	48.6	3.69	2.86 µM	16.1	3.9	29	37.5	28.5	30.9	> 100	3.85	20.4	29.1
C=CCOCn1cnc2c(N)ncnc21	> 100	> 100	> 100	> 100	> 100	> 100 µM	> 100		> 100	> 100	> 100	> 100	> 100	> 100	> 100	> 100
COc1cccc(-c2ccc3c4c2O[C@H]2c5[nH]c6ccccc6c5C[C@@]5(O)[C@@H](C3)N(CC3CC3)CC[C@]425)c1	4.9	> 100		3.33	3.28	9.34 µM	5.27		3.08	3.69		4.23	5.51	4.23	3.48	3.13
C=CC1ON(Cc2ccccc2)CCc2cc(OC)c(OC)cc21 (centres undefined)	> 100	> 100	94.4	> 100	89.5	> 100 µM	> 100	> 100	> 100		> 100	> 100	> 100	> 100	> 100	> 100
O=C(NCCC(F)(F)C(F)(F)C(F)(F)C(F)(F)F)NC1OC(CO)C(O)C(O)C1O (centres undefined)	> 100	> 100	> 100	> 100	> 100	> 100 µM	> 100		> 100	> 100	> 100	> 100	> 100	> 100	> 100	> 100
CC1(C)[C@@H](Cn2cnc3c(N)ncnc32)CC[C@@]1(C)CO	> 100	> 100	> 100	> 100	> 100	> 100 µM	> 100	> 100	> 100		> 100	> 100	76.8	> 100	> 100	> 100
